{"source": "patent US20240285514A1", "about": "“EXTRACTS OF EUTERPE OLERACEA, METHODS OF MAKING, AND USES THEREOF” (Naturesphix Limited, priority 2021, published 2024)", "key": {"human keratinocytes [1]": {"system": "human keratinocytes", "assay": "Scavenger potential against UVB radiation in keratinocytes (DCFH-DA probe)", "format": "cell-based", "conditions": "10 μg/mL added immediately prior to UVB 90 mJ/cm^2; vs vehicle+UVB", "experimental": "(§1) The 2′,7′ dichlorofluorescein diacetate (nonfluorescent) is de-esterified intracellularly and becomes a 2′,7′ highly fluorescent dichlorofluorescein after oxidation. Fluorescence detection was performed at 485 nm excitation wavelength and 535 nm emission wavelength in SpectraMax i3x (Molecular Devices) equipment. […] The concentrations of the Test Substance (10 μg/mL), Ascorbic acid Reference Substance (10 μg/mL) and Ferulic acid Reference Substance (4 μg/mL) were prepared according to the description above (Test Substance, Reference Substances and Vehicle Preparation)."}, "human keratinocytes [2]": {"system": "human keratinocytes", "assay": "Scavenger activity against UVB radiation, section headed 'in Fibroblasts' (FIG. 14)", "format": "cell-based", "conditions": "10 μg/mL added immediately prior to UVB 90 mJ/cm2; vs vehicle+UVB", "experimental": "as §1"}, "human keratinocytes [3]": {"system": "human keratinocytes", "assay": "Antioxidant potential against UVB radiation in keratinocytes (24 h pre-treatment, DCFH-DA probe)", "format": "cell-based", "conditions": "10 μg/mL; incubation 24 hours before UVB 90 mJ/cm^2; vs vehicle+UVB", "experimental": "as §1"}, "human fibroblasts": {"system": "human fibroblasts", "assay": "Antioxidant potential against UVB in human fibroblasts (DCFH-DA probe)", "format": "cell-based", "conditions": "pre-incubation before UVB 90 mJ/cm^2, vs vehicle+UVB", "experimental": "as §1, with “Preparation). The human fibroblasts were incubated with a DCFH-DA probe (50 μM) for 30 minutes. After this period, the fibroblasts were incubated. For statistical analysis, one-way variance analysis (ANOVA) was used, followed by Newman-Keuls test (#p<0.05 compared to Vehicle group and *p<0.05 compared to Vehicle+UVB 90 mJ/cm^2).” for “Preparation).”"}, "MMP-1 enzyme": {"biological_target": "T1, MMP-1 enzyme (Homo sapiens, UniProt P03956)", "T1 sequence (P03956 100-469)": "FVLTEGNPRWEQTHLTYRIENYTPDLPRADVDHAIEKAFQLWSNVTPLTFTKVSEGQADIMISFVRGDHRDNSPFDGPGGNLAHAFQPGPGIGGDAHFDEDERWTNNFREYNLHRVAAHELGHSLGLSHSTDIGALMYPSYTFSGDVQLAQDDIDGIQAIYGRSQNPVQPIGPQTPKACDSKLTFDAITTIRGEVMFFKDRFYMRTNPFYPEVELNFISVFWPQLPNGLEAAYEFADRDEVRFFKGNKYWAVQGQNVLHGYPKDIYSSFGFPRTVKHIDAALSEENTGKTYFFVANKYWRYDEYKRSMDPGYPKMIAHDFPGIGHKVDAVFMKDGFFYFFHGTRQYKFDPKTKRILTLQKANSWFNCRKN", "assay": "Metalloproteinase-1 (MMP-1) enzyme activity", "format": "biochemical", "experimental": "The MMP-1 enzyme was evaluated after incubation with the Vehicle (0.04% DMSO), ST-035 (10 μg/mL), Ascorbic acid Reference Substance (10 μg/mL), Ferulic acid Reference Substance (4 μg/mL) or positive control of the test, GM6001, a MMP-1 enzyme activity inhibitor. The bars represent the mean±standard error of the mean of 1 assay performed in triplicate. The percentage of inhibition was calculated in relation to the Vehicle group. For the statistical analysis a one-way analysis of variance (ANOVA) was used, followed by the Newman-Keuls test (*p<0.05 in comparison to Vehicle group)."}, "human keratinocytes [4]": {"system": "human keratinocytes", "assay": "Intrinsic antioxidant activity (basal EROs production) with DCFH-DA probe in keratinocytes", "format": "cell-based", "conditions": "no UVB, vs vehicle", "experimental": "as §1, with “Preparation). The intrinsic antioxidant activity of Test Substance in human keratinocytes was evaluated as follows. […] Subsequently, the production of EROs was evaluated through the microplate reader (485/535 nm). Two different assays were performed in triplicate. For the statistical analysis, one-way analysis of variance (ANOVA) was used, followed by the Newman-Keuls test (*p<0.05 in comparison to Vehicle group).” for “Preparation).”"}, "[5]": {"system": "reconstructed human tissue model", "assay": "Skin irritation assay, reconstructed human epidermis (OECD TG439)", "format": "cell-based", "conditions": "42 minutes treatment; three tissues", "experimental": "The possible irritant action of ST-035 on a reconstructed human tissue model, as described in the OECD Guidelines for the Testing of Chemicals, Section 4, TG439 In Vitro Skin Irritation: Reconstructed Human Epidermis Test Method was evaluated. After receiving the tissues, they were readapted in growth medium overnight until the Treatment moment. After the readaptation, Negative Control, positive control (Reference Substance) or Test Substance were added in a 16 μL volume on the epidermis and maintained for 42 minutes (±1 minute). Following, each tissue went through a 25-phosphate buffer washing process to remove the Treatments. Subsequently, the epidermis was maintained for 42 hours (±1 hour) in growth medium in a CO2 incubator (5±0.1%) at 37±0.1° C. After this period, the tissues were incubated for 3 hours (±15 minutes) with a 1 mg/mL MTT solution and then 2 hours with isopropanol for the formazan complex extraction. Then, 200 μL of each well (in duplicate) were transferred to a 96-well plate for absorbance reading at 570 nm.\nSkin irritation assay in a reconstructed human skin model is an alternative method that follows the OECD TG439 standards and is validated by international centers, with international regulatory acceptance. […]"}, "tyrosinase": {"system": "tyrosinase", "assay": "Tyrosinase enzyme activity", "format": "biochemical"}}, "data": [{"smiles": "O=C1O[C@H]([C@@H](O)CO)C(O)=C1O", "note": "[ascorbic acid]", "values": [{"measurement": "reduction of UVB induced production of EROs (scavenger potential)", "setting": "human keratinocytes [1]", "result": "46.2±2.0", "unit": "%"}, {"measurement": "reduction of UVB induced production of EROs (scavenger potential, FIG. 14)", "setting": "human keratinocytes [2]", "result": "46.2±2.0", "unit": "%"}, {"measurement": "decrease of production of EROs after UVB (antioxidant capacity)", "setting": "human keratinocytes [3]", "result": "44.3±11.4", "unit": "%"}, {"measurement": "reduction of production of reactive oxygen species (antioxidant potential)", "setting": "human fibroblasts; 10 μg/mL", "result": "30.5±6.2", "unit": "%"}, {"measurement": "inhibition at 10 µg/mL", "setting": "MMP-1 enzyme; 10 μg/mL, vs vehicle", "result": "9.2 ± 1.5", "unit": "%"}, {"measurement": "reduction of basal production of EROs", "setting": "human keratinocytes [4]; 10 μg/mL, 4 hours", "result": "did not change"}, {"measurement": "reduction of basal production of EROs", "setting": "human keratinocytes [4]; 10 μg/mL, 24 hours", "result": "did not change"}]}, {"smiles": "COc1cc(/C=C/C(=O)O)ccc1O", "note": "[ferulic acid]", "values": [{"measurement": "reduction of production of reactive oxygen species (antioxidant potential)", "setting": "human fibroblasts; 4 μg/mL", "result": "47.4±0.5", "unit": "%"}, {"measurement": "change of MMP-1 activity in vitro", "setting": "MMP-1 enzyme; 4 μg/mL, vs vehicle", "result": "did not change"}, {"measurement": "reduction of basal production of EROs", "setting": "human keratinocytes [4]; 4 μg/mL, 4 hours", "result": "26.8±2.4", "unit": "%"}, {"measurement": "reduction of basal production of EROs", "setting": "human keratinocytes [4]; 4 μg/mL, 24 hours", "result": "45.8±6.6", "unit": "%"}]}, {"smiles": "CCCCCCCCCCCCOS(=O)(=O)[O-].[Na+]", "note": "[SDS, sodium dodecylsulfate]", "values": [{"measurement": "tissue viability mean (absorbance at 570 nm)", "setting": "[5]", "result": "0.018±0.001"}]}, {"smiles": "CNC(=O)[C@H](Cc1c[nH]c2ccccc12)NC(=O)[C@@H](CC(=O)NO)CC(C)C", "note": "[GM6001]", "values": [{"measurement": "reduction of MMP-1 activity", "setting": "MMP-1 enzyme; 1 μM, assay validation", "result": "81.3±1.5", "unit": "%"}]}, {"smiles": "O=c1cc(CO)occ1O", "note": "[kojic acid]", "values": [{"measurement": "reduction of tyrosinase enzyme activity", "setting": "tyrosinase; 300 μg/mL", "result": 43, "unit": "%"}, {"measurement": "reduction of tyrosinase enzyme activity", "setting": "tyrosinase; 1,000 μg/mL", "result": 84, "unit": "%"}]}]}
